Results taken from PMC10202811 (Nature Medicine, 2023).
Like-named read-outs stand apart in the source and are kept apart here.

Test: Plasma pharmacokinetics of lorlatinib at steady state (LC-MS/MS, non-compartmental analysis)
Assay type: in vivo, human
Conditions: human, plasma, oral; for Cmax: read-out: Cmax; for Tmax: read-out: Tmax
Source text: Lorlatinib was isolated from human plasma by a liquid-iquid extraction procedure. […] A linear-log trapezoidal method was used [NT] A best-fit method was used to estimate terminal elimination and to extrapolate any plasma concentration versus time profiles to compute [NT].

[1] = 60 mg/m2, Cohort A1, 60 mg/m2 per dose, C1D15, individual patient
[2] = 60 mg/m2, Cycle 1 Day 1, Cohort A1, 60 mg/m2 per dose, individual patients
[3] = 60 mg/m2, Cycle 1 Day 15, Cohort A1, 60 mg/m2 per dose, individual patients
[4] = 75 mg/m2, Cohort A1, 75 mg/m2 per dose, C1D15, Geometric Mean, N 3
[5] = 75 mg/m2, Cohort A1, 75 mg/m2 per dose, C1D15, Median, N 3
[6] = 75 mg/m2, Cycle 1 Day 1, Cohort A1, 75 mg/m2 per dose, individual patients
[7] = 95 mg/m2, Cohort A1, 95 mg/m2 per dose, C1D15, Geometric Mean, N 9
[8] = 95 mg/m2, Cohort A1, 95 mg/m2 per dose, C1D15, Median, N 9
[9] = 95 mg/m2, Cohort B2, 95 mg/m2 per dose, C1D15, Geometric Mean, N 2
[10] = 95 mg/m2, Cohort B2, 95 mg/m2 per dose, C1D15, Median, N 2
[11] = 95 mg/m2, Cohort B2, 95 mg/m2 per dose, C1D15, individual patient
[12] = 95 mg/m2, Cycle 1 Day 1, Cohort A1, 95 mg/m2 per dose
[13] = 95 mg/m2, Cycle 1 Day 1, Cohort B2, 95 mg/m2 per dose
[14] = 95 mg/m2, Cycle 1 Day 1, Cohort A1, 95 mg/m2 per dose, individual patients
[15] = 95 mg/m2, Cycle 1 Day 15, Cohort B2, 95 mg/m2 per dose
[16] = 95 mg/m2, steady state, Cohort B2 (with topotecan/cyclophosphamide), 95 mg/m^2 QD, individual values
[17] = 100 mg, Cohort A2, 100 mg per dose, C1D15, Geometric Mean, N 5
[18] = 100 mg, Cohort A2, 100 mg per dose, C1D15, Median, N 5
[19] = 100 mg, Cycle 1 Day 1, Cohort A2, 100 mg per dose, individual patients
[20] = 150 mg per dose, Cycle 1 Day 1, Cohort A2, 150 mg per dose
[21] = 150 mg per dose, Cycle 1 Day 15, Cohort A2, 150 mg per dose
[22] = 150 mg, Cohort A2, 150 mg per dose, C1D15, Geometric Mean, N 10
[23] = 150 mg, Cohort A2, 150 mg per dose, C1D15, Median, N 10
[24] = 150 mg, Cycle 1 Day 1, Cohort A2, 150 mg per dose, individual patients
[25] = 150 mg, Cycle 1 Day 15, Cohort A2, 150 mg per dose, individual patients

C[C@H]1Oc2cc(cnc2N)-c2c(nn(C)c2C#N)CN(C)C(=O)c2ccc(F)cc21 [Lorlatinib, (10R)-7-amino-12-fluoro-2,10,16-trimethyl-15-oxo-10,15,16,17-tetrahydro-2H-8,4-(metheno)pyrazolo[4,3-h][2,5,11]-benzoxadiazacyclotetradecine-3-carbonitrile]
Cmax [1]: 623 ng/mL
Tmax [1]: 2 h
AUC(0-t) [2]: 3960 ng·h/mL
MRT last [2]: 6.96 h
Cmax [2]: 761 ng/mL
Tmax [2]: 1 h
AUC(0-t) [3]: 4140 ng·h/mL
AUC(0-inf) (60 mg/m2, Cycle 1 Day 15, Cohort A1, 60 mg/m2 per dose, individual patients, read-out: AUCINF_obs): 5050 ng·h/mL
AUC(0-inf) (60 mg/m2, Cycle 1 Day 15, Cohort A1, 60 mg/m2 per dose, individual patients, read-out: AUCINF_pred): 5040 ng·h/mL
AUC (60 mg/m2, Cycle 1 Day 15, Cohort A1, 60 mg/m2 per dose, individual patients, read-out: AUC_TAU): 4140 ng·h/mL
AUC (60 mg/m2, Cycle 1 Day 15, Cohort A1, 60 mg/m2 per dose, individual patients, read-out: AUCall): 4140 ng·h/mL
Cmax [3]: 623 ng/mL
MRT inf (60 mg/m2, Cycle 1 Day 15, Cohort A1, 60 mg/m2 per dose, individual patients, read-out: MRTINF_obs): 13 h
MRT inf (60 mg/m2, Cycle 1 Day 15, Cohort A1, 60 mg/m2 per dose, individual patients, read-out: MRTINF_pred): 12.9 h
Tmax [3]: 2 h
AUC (60 mg/m2, steady state, Cohort A1, 60 mg/m^2 QD, (CV), read-out: AUCtau): 3930 ng·h/mL
Cmax (60 mg/m2, steady state, Cohort A1, 60 mg/m^2 QD, (CV)): 492 ng/mL
Tmax (60 mg/m2, steady state, Cohort A1, 60 mg/m^2 QD): 2 h
AUC (75 mg/m2, Cohort A1, 75 mg/m2 per dose, C1D15, Geometric Mean, N 3, read-out: AUC_TAU): 4150 ng·h/mL
Cmax [4]: 645 ng/mL
Tmax [4]: 2.29 h
AUC (75 mg/m2, Cohort A1, 75 mg/m2 per dose, C1D15, Median, N 3, read-out: AUC_TAU): 4020 ng·h/mL
Cmax [5]: 659 ng/mL
Tmax [5]: 2 h
Cmax (75 mg/m2, Cohort A1, 75 mg/m2 per dose, C1D15, individual patient): 659 ng/mL
AUC(0-t) [6]: 6740 ng·h/mL
MRT last [6]: 7.77 h
AUC (75 mg/m2, Cycle 1 Day 1, Cohort A1, 75 mg/m2 per dose, individual patients, read-out: AUCall): 6740 ng·h/mL
Cmax [6]: 961 ng/mL
Tmax [6]: 1 h
AUC(0-inf) (75 mg/m2, Cycle 1 Day 15, Cohort A1, 75 mg/m2 per dose, individual patients, read-out: AUCINF_obs): 4500 ng·h/mL
AUC(0-inf) (75 mg/m2, Cycle 1 Day 15, Cohort A1, 75 mg/m2 per dose, individual patients, read-out: AUCINF_pred): 4490 ng·h/mL
Cmax (75 mg/m2, Cycle 1 Day 15, Cohort A1, 75 mg/m2 per dose, individual patients): 659 ng/mL
MRT inf (75 mg/m2, Cycle 1 Day 15, Cohort A1, 75 mg/m2 per dose, individual patients, read-out: MRTINF_obs): 10.3 h
MRT inf (75 mg/m2, Cycle 1 Day 15, Cohort A1, 75 mg/m2 per dose, individual patients, read-out: MRTINF_pred): 10.3 h
AUC (75 mg/m2, steady state, Cohort A1, 75 mg/m^2 QD, (CV), read-out: AUCtau): 4160 ng·h/mL
Cmax (75 mg/m2, steady state, Cohort A1, 75 mg/m^2 QD, (CV)): 645 ng/mL
Tmax (75 mg/m2, steady state, Cohort A1, 75 mg/m^2 QD): 2 h
AUC (95 mg/m2, Cohort A1, 95 mg/m2 per dose, C1D15, Geometric Mean, N 9, read-out: AUC_TAU): 7470 ng·h/mL
Cmax [7]: 1020 ng/mL
Tmax [7]: 1.47 h
AUC (95 mg/m2, Cohort A1, 95 mg/m2 per dose, C1D15, Median, N 9, read-out: AUC_TAU): 6910 ng·h/mL
Cmax [8]: 1100 ng/mL
Tmax [8]: 1 h
AUC (95 mg/m2, Cohort B2, 95 mg/m2 per dose, C1D15, Geometric Mean, N 2, read-out: AUC_TAU): 6690 ng·h/mL
Cmax [9]: 817 ng/mL
Tmax [9]: 2.83 h
AUC (95 mg/m2, Cohort B2, 95 mg/m2 per dose, C1D15, Median, N 2, read-out: AUC_TAU): 6810 ng·h/mL
Cmax [10]: 824 ng/mL
Tmax [10]: 3 h
AUC (95 mg/m2, Cohort B2, 95 mg/m2 per dose, C1D15, individual patient, read-out: AUC_TAU): 8100 ng·h/mL
Cmax [11]: 926 ng/mL
Tmax [11]: 4 h
MRT last [12]: 7.38 h
Tmax [12]: 1 h
Cmax [13]: 914 ng/mL
Tmax [13]: 2 h
MRT last [14]: 9.06 h
Tmax [14]: 2 h
Tmax (95 mg/m2, Cycle 1 Day 15, Cohort A1, 95 mg/m2 per dose): 1 h
AUC(0-t) [15]: 8100 ng·h/mL
AUC(0-inf) (95 mg/m2, Cycle 1 Day 15, Cohort B2, 95 mg/m2 per dose, read-out: AUCINF_obs): 5730 ng·h/mL
AUC(0-inf) (95 mg/m2, Cycle 1 Day 15, Cohort B2, 95 mg/m2 per dose, read-out: AUCINF_pred): 5730 ng·h/mL
AUC (95 mg/m2, Cycle 1 Day 15, Cohort B2, 95 mg/m2 per dose, read-out: AUC_TAU): 8100 ng·h/mL
AUC (95 mg/m2, Cycle 1 Day 15, Cohort B2, 95 mg/m2 per dose, read-out: AUCall): 8100 ng·h/mL
Cmax [15]: 926 ng/mL
MRT inf (95 mg/m2, Cycle 1 Day 15, Cohort B2, 95 mg/m2 per dose, read-out: MRTINF_obs): 7.79 h
MRT inf (95 mg/m2, Cycle 1 Day 15, Cohort B2, 95 mg/m2 per dose, read-out: MRTINF_pred): 7.77 h
Tmax [15]: 4 h
MRT inf (95 mg/m2, Cycle 1 Day 15, Cohort A1, 95 mg/m2 per dose, individual patients, read-out: MRTINF_obs): 20.6 h
MRT inf (95 mg/m2, Cycle 1 Day 15, Cohort A1, 95 mg/m2 per dose, individual patients, read-out: MRTINF_pred): 20.5 h
AUC (95 mg/m2, steady state, Cohort A1, 95 mg/m^2 QD, (CV), read-out: AUCtau): 7470 ng·h/mL
Cmax (95 mg/m2, steady state, Cohort A1, 95 mg/m^2 QD, (CV)): 1020 ng/mL
Tmax (95 mg/m2, steady state, Cohort A1, 95 mg/m^2 QD): 1 h
AUC (95 mg/m2, steady state, Cohort B2 (with topotecan/cyclophosphamide), 95 mg/m^2 QD, individual values, read-out: AUCtau): 8100 ng·h/mL
Cmax [16]: 926 ng/mL
Tmax [16]: 4 h
AUC (100 mg, Cohort A2, 100 mg per dose, C1D15, Geometric Mean, N 5, read-out: AUC_TAU): 6790 ng·h/mL
Cmax [17]: 789 ng/mL
Tmax [17]: 1.74 h
AUC (100 mg, Cohort A2, 100 mg per dose, C1D15, Median, N 5, read-out: AUC_TAU): 6130 ng·h/mL
Cmax [18]: 569 ng/mL
Tmax [18]: 2 h
MRT last [19]: 12.4 h
Tmax [19]: 2 h
MRT inf (100 mg, Cycle 1 Day 15, Cohort A2, 100 mg per dose, individual patients, read-out: MRTINF_obs): 23.8 h
MRT inf (100 mg, Cycle 1 Day 15, Cohort A2, 100 mg per dose, individual patients, read-out: MRTINF_pred): 23.7 h
AUC (100 mg, steady state, Cohort A2, 100 mg QD, (CV), read-out: AUCtau): 6790 ng·h/mL
Cmax (100 mg, steady state, Cohort A2, 100 mg QD, (CV)): 789 ng/mL
Tmax (100 mg, steady state, Cohort A2, 100 mg QD): 2 h
AUC(0-t) [20]: 8990 ng·h/mL
MRT last [20]: 9.33 h
AUC (150 mg per dose, Cycle 1 Day 1, Cohort A2, 150 mg per dose, read-out: AUCall): 8990 ng·h/mL
Tmax [20]: 1 h
AUC(0-t) [21]: 5000 ng·h/mL
AUC (150 mg per dose, Cycle 1 Day 15, Cohort A2, 150 mg per dose, read-out: AUCall): 5000 ng·h/mL
Tmax [21]: 2 h
AUC (150 mg, Cohort A2, 150 mg per dose, C1D15, Geometric Mean, N 10, read-out: AUC_TAU): 6680 ng·h/mL
Cmax [22]: 741 ng/mL
Tmax [22]: 1.41 h
AUC (150 mg, Cohort A2, 150 mg per dose, C1D15, Median, N 10, read-out: AUC_TAU): 6890 ng·h/mL
Cmax [23]: 710 ng/mL
Tmax [23]: 1 h
AUC (150 mg, Cohort A2, 150 mg per dose, C1D15, individual patient, read-out: AUC_TAU): 5920 ng·h/mL
AUC(0-t) [24]: 5920 ng·h/mL
MRT last [24]: 8.35 h
AUC (150 mg, Cycle 1 Day 1, Cohort A2, 150 mg per dose, individual patients, read-out: AUCall): 5920 ng·h/mL
Cmax [24]: 564 ng/mL
Tmax [24]: 1 h
AUC (150 mg, Cycle 1 Day 15, Cohort A2, 150 mg per dose, read-out: AUC_TAU): 5000 ng·h/mL
AUC(0-t) [25]: 7380 ng·h/mL
AUC(0-inf) (150 mg, Cycle 1 Day 15, Cohort A2, 150 mg per dose, individual patients, read-out: AUCINF_pred): 8770 ng·h/mL
AUC (150 mg, Cycle 1 Day 15, Cohort A2, 150 mg per dose, individual patients, read-out: AUC_TAU): 7380 ng·h/mL
AUC (150 mg, Cycle 1 Day 15, Cohort A2, 150 mg per dose, individual patients, read-out: AUCall): 7380 ng·h/mL
concentration at 24 h (150 mg, Cycle 1 Day 15, Cohort A2, 150 mg per dose, individual patients, read-out: Clast_pred): 128 ng/mL
Cmax [25]: 658 ng/mL
MRT inf (150 mg, Cycle 1 Day 15, Cohort A2, 150 mg per dose, individual patients, read-out: MRTINF_obs): 16.8 h
MRT inf (150 mg, Cycle 1 Day 15, Cohort A2, 150 mg per dose, individual patients, read-out: MRTINF_pred): 16.7 h
AUC (150 mg, steady state, Cohort A2, 150 mg QD, (CV), read-out: AUCtau): 6680 ng·h/mL
Cmax (150 mg, steady state, Cohort A2, 150 mg QD, (CV)): 741 ng/mL
Tmax (150 mg, steady state, Cohort A2, 150 mg QD): 1 h
